We go through two compounds from US20230183243A1, “HETEROARYL DERIVATIVES AND PHARMACEUTICAL COMPOSITION COMPRISING SAME AS ACTIVE INGREDIENT” (VORONOI INC., priority 2019, published 2023).

Assay [1] deals with LRRK2 (Homo sapiens, UniProt Q5S007). Kind of assay: ScanMAX Kinase panel (DiscoverX). Format: binding. Also noted: purchased DiscoverX Corp. (ScanMAX Kinase panel, commissioned). The note with it: read-out: % Cont @ 1 μM. As for the experimental part:
(§1) Specifically, the enzyme (kinase) selectivity of the compound of Example 7 selected from the Example compounds of the present invention was measured by commissioning DiscoverX Corp., and an experiment was performed using a panel for ScanMAX™ Kinase analysis.
(§2) In this case, the concentration of a drug treated with the enzyme was set at 1 μM in DMSO, and percent control (% control) was defined in the same manner as in the following Expression 1.
(§3) (Example compound−Positive control)/(Negative control−Positive control)×100 [Expression 1]
(§4) Wherein the positive control represents a compound having a percent control of 0%, and the negative control represents a compound having a percent control of 100% in DMSO. For the enzyme selectivity of the present invention, the compound was also judged to have activity against the corresponding enzyme when the percent control for each of the enzymes was <30% (i.e., less than 30%).
(§5) Further, to evaluate the inhibitory activity of the compound according to the present invention against more enzymes, an experiment was performed as follows. Specifically, the enzyme (kinase) selectivity of the compound of Example 64 selected from the Example compounds of the present invention was measured by commissioning DiscoverX Corp., and an experiment was performed using a panel for ScanMAX™ Kinase analysis. In this case, the concentration of a drug treated with the enzyme was set at 1 μM in DMSO, and the percent control (% control) were defined in the same manner as in the following Expression 1.
(§6) Wherein the positive control represents a compound having a percent control of 0%, and the negative control represents a compound having a percent control of 100% in DMSO. For the enzyme selectivity of the present invention, the compound was also judged to have activity against the corresponding enzyme when the percent control for each of the enzymes was <35% (i.e., less than 35%).

The target in assay [2] is T1, TTK (Homo sapiens, UniProt P33981).
T1 sequence (P33981 1-857): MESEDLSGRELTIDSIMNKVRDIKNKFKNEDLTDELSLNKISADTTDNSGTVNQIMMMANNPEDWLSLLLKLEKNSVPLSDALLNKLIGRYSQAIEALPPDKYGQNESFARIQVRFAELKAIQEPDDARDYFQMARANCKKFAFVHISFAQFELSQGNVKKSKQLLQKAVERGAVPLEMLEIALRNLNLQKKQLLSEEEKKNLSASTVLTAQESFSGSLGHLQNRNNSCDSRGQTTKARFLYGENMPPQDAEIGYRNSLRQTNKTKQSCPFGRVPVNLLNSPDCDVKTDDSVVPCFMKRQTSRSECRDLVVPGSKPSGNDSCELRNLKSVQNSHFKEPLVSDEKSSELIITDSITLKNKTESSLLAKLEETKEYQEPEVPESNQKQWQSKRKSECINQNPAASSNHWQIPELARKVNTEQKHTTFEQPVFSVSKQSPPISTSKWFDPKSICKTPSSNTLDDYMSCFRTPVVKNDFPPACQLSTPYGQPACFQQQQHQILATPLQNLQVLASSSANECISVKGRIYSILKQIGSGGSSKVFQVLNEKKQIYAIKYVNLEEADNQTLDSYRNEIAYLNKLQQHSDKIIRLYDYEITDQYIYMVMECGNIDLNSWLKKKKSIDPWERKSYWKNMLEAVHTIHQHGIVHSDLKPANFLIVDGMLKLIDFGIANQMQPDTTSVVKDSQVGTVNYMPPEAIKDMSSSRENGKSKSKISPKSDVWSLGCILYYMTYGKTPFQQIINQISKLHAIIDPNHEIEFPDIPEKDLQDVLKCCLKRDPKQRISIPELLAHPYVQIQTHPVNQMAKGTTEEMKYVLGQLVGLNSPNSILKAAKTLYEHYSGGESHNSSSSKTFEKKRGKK
Kind of assay: ScanMAX Kinase panel (DiscoverX). Format: binding. Further details: purchased DiscoverX Corp. (ScanMAX Kinase panel, commissioned). The note with it: read-out: % Cont @ 1 μM. The protocol:
as §1, §2, §3, §4, §5, §6

In assay [3] the target is T1, TTK. Kind of assay: TTK enzyme activity, ADP-Glo kinase assay. Format: biochemical. Further details: purchased SignalChem T20-10G. The note with it: purified human TTK, ATP 10 μM, 25° C., 2 hours. In outline: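 ADP-Glo read-out; percent inhibition at each compound concentration was relative to the solvent-only control. The reactions contained 25 ng enzyme, 0.2 μg substrate and 10 μM ATP in 40 mM Tris-HCl pH 7.4 with 20 mM MgCl2, 0.5 mg/mL BSA and 50 μM DTT, and ran 2 h at 25 °C.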

Assay [4] has as its target T2, MAP3K2 (Homo sapiens, UniProt Q9Y2U5).
T2 construct: purchased DiscoverX Corp. ScanMAX Kinase panel
Kind of assay: ScanMAX Kinase panel (DiscoverX). Type of assay: binding. The note with it: read-out: % Cont @ 1 μM. The protocol: as §5, §3, §6

For assay [5], the target named is T3, ULK1 (Homo sapiens, UniProt O75385).
T3 construct: purchased DiscoverX Corp. ScanMAX Kinase panel
Kind of assay: ScanMAX Kinase panel (DiscoverX). Type of assay: binding. As for the experimental part: as §5, §3, §6

In assay [6] the target is T4, CAMKK2 (Homo sapiens, UniProt Q96RR4).
T4 construct: purchased DiscoverX Corp. ScanMAX Kinase panel
T4 sequence (Q96RR4 whole entry): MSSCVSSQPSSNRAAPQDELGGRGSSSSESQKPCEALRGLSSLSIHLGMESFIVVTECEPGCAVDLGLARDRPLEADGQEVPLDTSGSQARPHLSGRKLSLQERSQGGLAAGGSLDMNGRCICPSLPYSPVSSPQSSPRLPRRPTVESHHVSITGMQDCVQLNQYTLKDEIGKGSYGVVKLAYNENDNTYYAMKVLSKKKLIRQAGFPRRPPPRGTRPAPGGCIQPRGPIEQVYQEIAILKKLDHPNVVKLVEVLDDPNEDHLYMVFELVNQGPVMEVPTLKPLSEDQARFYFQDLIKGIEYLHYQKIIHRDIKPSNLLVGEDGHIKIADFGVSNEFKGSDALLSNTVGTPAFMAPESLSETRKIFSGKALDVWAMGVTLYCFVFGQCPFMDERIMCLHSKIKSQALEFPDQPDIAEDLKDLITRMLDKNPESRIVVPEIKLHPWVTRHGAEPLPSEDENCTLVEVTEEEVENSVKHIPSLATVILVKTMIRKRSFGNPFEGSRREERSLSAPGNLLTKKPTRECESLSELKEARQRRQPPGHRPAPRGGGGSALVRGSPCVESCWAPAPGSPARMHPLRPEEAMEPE
Kind of assay: ScanMAX Kinase panel (DiscoverX). The note with it: read-out: % Cont @ 1 μM. Type of assay: binding. The protocol: as §5, §3, §6

In assay [7] the target is T5, ULK3 (Homo sapiens, UniProt Q6PHR2).
T5 construct: purchased DiscoverX Corp. ScanMAX Kinase panel
Kind of assay: ScanMAX Kinase panel (DiscoverX). Format: binding. The protocol: as §5, §3, §6

Assay [8] deals with T6, RSK4(Kin.Dom.1-N-terminal) (Homo sapiens, UniProt Q9UK32).
T6 construct: RSK4(Kin.Dom.1); purchased DiscoverX Corp. ScanMAX Kinase panel
T6 sequence (Q9UK32 73-330 limits assumed): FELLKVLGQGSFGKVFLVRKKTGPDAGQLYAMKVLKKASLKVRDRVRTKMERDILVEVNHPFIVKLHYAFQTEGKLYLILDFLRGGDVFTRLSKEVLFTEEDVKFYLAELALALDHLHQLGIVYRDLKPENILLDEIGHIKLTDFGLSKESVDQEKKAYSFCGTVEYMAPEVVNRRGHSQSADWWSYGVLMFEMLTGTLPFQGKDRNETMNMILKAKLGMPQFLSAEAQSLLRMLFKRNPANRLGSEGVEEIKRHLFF
Kind of assay: ScanMAX Kinase panel (DiscoverX). Type of assay: binding. As for the experimental part:
as §5, §3, §6

Assay [9] addresses T7, TYK2(JH2domain-pseudokinase) (Homo sapiens, UniProt P29597).
T7 construct: TYK2(JH2domain-; purchased DiscoverX Corp. ScanMAX Kinase panel
Kind of assay: ScanMAX Kinase panel (DiscoverX). Type of assay: binding. As for the experimental part:
as §5, §3, §6

Assay [10] deals with T8, TRKB (Homo sapiens, UniProt Q16620).
T8 construct: purchased DiscoverX Corp. ScanMAX Kinase panel
T8 sequence (Q16620 32-822): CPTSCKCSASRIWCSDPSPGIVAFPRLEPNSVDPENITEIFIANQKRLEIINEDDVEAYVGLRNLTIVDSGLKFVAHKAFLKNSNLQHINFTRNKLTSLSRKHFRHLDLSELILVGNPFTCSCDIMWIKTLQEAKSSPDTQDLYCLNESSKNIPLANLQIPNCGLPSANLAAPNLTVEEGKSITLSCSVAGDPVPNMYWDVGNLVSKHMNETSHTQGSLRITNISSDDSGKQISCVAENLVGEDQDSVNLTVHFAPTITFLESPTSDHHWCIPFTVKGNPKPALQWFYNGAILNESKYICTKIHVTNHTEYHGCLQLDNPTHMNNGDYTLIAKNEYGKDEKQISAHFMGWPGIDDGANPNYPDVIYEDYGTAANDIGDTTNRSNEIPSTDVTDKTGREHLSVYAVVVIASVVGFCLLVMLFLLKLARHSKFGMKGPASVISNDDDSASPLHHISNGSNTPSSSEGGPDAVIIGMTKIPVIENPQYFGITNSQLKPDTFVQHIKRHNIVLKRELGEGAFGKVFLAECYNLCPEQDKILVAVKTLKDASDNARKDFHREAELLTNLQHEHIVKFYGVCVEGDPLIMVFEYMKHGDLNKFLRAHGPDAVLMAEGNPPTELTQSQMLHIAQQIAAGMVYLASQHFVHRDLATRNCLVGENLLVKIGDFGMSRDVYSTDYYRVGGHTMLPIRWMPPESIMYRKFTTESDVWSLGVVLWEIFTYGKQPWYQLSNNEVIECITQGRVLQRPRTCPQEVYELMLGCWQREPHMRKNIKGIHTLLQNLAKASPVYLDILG
Kind of assay: ScanMAX Kinase panel (DiscoverX). Type of assay: binding. The note with it: read-out: % Cont @ 1 μM. The protocol: as §5, §3, §6

The target in assay [11] is T9, DYRK1B (Homo sapiens, UniProt Q9Y463).
T9 construct: purchased DiscoverX Corp. ScanMAX Kinase panel
T9 sequence (Q9Y463 whole entry): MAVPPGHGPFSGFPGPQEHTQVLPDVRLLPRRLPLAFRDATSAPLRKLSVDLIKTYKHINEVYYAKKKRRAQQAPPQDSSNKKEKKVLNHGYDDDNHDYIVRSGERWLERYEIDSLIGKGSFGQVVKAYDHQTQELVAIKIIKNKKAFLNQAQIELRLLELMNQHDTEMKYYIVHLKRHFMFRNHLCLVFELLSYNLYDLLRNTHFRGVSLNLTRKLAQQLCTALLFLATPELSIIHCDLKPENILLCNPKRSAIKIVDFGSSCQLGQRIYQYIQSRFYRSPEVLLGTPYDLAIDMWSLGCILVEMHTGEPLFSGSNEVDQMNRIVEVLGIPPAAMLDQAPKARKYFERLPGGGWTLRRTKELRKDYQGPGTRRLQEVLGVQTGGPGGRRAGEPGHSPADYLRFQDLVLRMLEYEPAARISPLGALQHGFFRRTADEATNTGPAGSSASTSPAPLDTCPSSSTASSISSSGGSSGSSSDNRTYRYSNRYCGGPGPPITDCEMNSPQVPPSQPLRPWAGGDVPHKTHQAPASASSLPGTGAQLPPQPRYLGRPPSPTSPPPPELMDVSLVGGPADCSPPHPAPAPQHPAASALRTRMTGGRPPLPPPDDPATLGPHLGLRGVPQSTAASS
Kind of assay: ScanMAX Kinase panel (DiscoverX). Type of assay: binding. The note with it: read-out: % Cont @ 1 μM. The protocol: as §5, §3, §6

Assay [12] addresses T10, JAK2(JH1domain-catalytic) (Homo sapiens, UniProt O60674).
T10 construct: JAK2(JH1domain-; purchased DiscoverX Corp. (ScanMAX Kinase panel, commissioned)
Kind of assay: ScanMAX Kinase panel (DiscoverX). Type of assay: binding. As for the experimental part:
as §5, §3, §6

Assay [13] addresses T11, RIOK1 (Homo sapiens, UniProt Q9BRS2).
T11 construct: purchased DiscoverX Corp. ScanMAX Kinase panel
Kind of assay: ScanMAX Kinase panel (DiscoverX). The note with it: read-out: % Cont @ 1 μM. Format: binding. The protocol:
as §5, §3, §6

Chain of LRRK2 (Q5S007 whole entry): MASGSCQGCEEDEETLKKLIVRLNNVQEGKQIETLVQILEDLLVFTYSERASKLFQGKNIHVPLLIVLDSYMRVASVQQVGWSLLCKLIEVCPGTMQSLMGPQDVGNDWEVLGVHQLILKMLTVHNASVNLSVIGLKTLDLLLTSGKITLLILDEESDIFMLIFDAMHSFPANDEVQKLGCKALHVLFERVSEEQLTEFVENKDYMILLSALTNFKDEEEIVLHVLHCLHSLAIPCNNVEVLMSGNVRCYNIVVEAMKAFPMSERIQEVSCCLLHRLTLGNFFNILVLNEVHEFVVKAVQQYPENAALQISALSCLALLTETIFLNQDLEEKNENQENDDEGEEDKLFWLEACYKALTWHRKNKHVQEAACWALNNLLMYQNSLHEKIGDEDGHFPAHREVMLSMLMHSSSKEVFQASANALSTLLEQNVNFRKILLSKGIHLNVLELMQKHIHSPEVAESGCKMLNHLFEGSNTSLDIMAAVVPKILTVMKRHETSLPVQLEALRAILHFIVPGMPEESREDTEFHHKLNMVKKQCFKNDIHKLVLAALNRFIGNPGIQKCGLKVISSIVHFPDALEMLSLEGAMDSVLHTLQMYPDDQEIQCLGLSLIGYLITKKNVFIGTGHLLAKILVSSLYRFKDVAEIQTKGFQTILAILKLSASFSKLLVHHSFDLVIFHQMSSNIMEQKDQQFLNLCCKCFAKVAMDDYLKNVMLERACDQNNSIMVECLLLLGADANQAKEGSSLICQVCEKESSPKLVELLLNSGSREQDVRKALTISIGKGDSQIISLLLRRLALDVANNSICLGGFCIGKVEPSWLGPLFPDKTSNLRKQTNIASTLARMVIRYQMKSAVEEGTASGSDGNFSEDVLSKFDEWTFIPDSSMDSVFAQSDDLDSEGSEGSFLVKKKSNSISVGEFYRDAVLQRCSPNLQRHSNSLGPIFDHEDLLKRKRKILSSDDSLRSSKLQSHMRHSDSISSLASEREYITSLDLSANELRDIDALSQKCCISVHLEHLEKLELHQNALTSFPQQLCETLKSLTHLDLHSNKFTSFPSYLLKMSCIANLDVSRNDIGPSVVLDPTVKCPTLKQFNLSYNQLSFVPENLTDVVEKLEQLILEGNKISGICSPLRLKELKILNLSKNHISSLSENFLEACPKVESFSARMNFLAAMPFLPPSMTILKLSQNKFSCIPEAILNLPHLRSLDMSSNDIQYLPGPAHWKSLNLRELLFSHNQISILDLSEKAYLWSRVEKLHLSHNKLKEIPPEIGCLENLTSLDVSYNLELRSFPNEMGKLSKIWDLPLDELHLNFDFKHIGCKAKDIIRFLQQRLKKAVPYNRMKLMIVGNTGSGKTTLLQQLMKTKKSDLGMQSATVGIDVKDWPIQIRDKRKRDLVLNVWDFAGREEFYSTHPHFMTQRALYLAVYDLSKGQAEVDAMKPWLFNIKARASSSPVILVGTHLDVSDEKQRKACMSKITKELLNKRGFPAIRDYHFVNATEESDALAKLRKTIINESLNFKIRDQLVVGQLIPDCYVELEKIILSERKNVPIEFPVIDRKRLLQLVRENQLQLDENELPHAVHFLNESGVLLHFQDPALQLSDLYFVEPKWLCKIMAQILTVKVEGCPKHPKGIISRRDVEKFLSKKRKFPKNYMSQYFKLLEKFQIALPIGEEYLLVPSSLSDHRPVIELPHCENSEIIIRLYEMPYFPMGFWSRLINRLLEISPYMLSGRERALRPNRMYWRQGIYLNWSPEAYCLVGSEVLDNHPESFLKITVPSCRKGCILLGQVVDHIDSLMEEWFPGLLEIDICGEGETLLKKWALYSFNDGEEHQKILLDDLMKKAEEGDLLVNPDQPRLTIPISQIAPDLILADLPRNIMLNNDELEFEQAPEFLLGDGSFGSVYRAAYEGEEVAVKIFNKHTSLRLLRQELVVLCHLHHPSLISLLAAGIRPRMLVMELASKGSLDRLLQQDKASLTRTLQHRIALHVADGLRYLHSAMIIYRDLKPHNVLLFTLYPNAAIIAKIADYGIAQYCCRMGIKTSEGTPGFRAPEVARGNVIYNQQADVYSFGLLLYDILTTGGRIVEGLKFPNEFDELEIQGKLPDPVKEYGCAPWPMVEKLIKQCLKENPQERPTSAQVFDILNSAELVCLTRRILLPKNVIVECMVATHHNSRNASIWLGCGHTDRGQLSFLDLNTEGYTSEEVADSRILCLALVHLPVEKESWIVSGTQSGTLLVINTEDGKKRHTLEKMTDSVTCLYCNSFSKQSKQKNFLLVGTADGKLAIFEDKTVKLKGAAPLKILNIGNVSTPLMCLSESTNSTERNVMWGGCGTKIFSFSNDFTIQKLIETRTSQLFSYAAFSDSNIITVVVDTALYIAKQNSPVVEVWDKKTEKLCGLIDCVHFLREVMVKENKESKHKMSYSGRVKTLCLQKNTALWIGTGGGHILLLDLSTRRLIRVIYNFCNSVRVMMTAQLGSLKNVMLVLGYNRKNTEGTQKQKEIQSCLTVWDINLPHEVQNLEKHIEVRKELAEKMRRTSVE
T7 sequence (P29597 589-875 limits assumed): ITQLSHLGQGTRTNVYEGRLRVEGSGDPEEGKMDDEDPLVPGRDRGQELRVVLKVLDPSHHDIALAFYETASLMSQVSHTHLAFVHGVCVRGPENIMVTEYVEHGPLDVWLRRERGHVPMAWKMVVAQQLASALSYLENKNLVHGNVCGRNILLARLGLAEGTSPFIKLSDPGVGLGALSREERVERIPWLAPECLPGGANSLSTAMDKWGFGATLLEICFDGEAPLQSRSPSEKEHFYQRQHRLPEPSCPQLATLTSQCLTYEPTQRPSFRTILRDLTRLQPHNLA

A word on the IC50: it is the midpoint of a concentration-inhibition curve. Turning to `COc1cc(-c2ccnn2C)ccc1Nc1nc(NC2CCCCC2)c2c(C#N)c[nH]c2n1` [Example 7, 4-(cyclohexylamino)-2-((2-methoxy-4-(1-methyl-1H-pyrazol-5-yl)phenyl)amino)-7H-pyrrolo[2,3-d] pyrimidine-5-carbonitrile], the percent of control binding at 1 µM in assay [1] was 4.8%. In assay [2], the percent of control at 1 µM turned out to be 0.25%. The same compound registered an IC50 in assay [3] below 50 nM.
With `COc1cc(N2CCCC2=O)ccc1Nc1cc(NC2CCCCC2)c2c(C#N)c[nH]c2n1` [Example 64, 4-(cyclohexylamino)-6-((2-methoxy-4-(2-oxopyrrolidin-1-yl)phenyl)amino)-1H-pyrrolo[2,3-b] pyridine-3-carbonitrile], the percent of control binding at 1 µM in assay [1] was 14%. Moreover, in assay [2], the percent of control at 1 µM is 0.25%. The IC50 in assay [3] is below 50 nM. Also, the remaining binding at 1 µM in assay [4] amounted to 13%; in assay [6] it was 2.2%; in assay [10], 3.9%; in assay [11] it was 28%; in assay [13], 27%. Also, the “% Cont @ 1 μM” value in [5] is reported as 3.1%; in [7] it was 2.6%; in [8] it was 3.7%; in [9], 7.2%; in assay [12] it was 0%.
